From patent US9510598B2, “Nitrogen-containing heterocyclic compounds for plant disease control” (BAYER CROPSCIENCE AG, priority 2012, dated 2016) come the findings set out here.

Structures are written as SMILES.

The format of the data set is physicochemical. The conditions noted are these: HPLC on reversed phase columns, method [a]: pH 2.7, 0.1% formic acid in water and acetonitrile, linear gradient 10% to 95% acetonitrile.
With `CC1(C(=O)N/C(=N/O)C(C)(C)C)CC(c2ccc3ncc(Br)cc3c2)=NO1` (centres unmarked) [compound 739], the “log P” value is 2.88[a].

Regarding `CC1(C(=O)N/C(=N/O)C2CC2)CC(c2ccc3ncc(Br)cc3c2)=NO1` (centres unmarked) [compound 740], the “log P” value is 2.35[a].

With `CC1(C(=O)N/C(=N/O)c2cccnc2)CC(c2ccc3ncc(Br)cc3c2)=NO1` (centres unmarked) [compound 741], the “log P” value is 2.10[a].

For the compound `CCC(C)NC(=O)C1(C)CC(c2ccc3ncc(Br)cc3c2)=NO1` (centres unmarked) [compound 742], the “log P” value was 3.37[a].

As to `CC(C)CNC(=O)C1(C)CC(c2ccc3ncc(Br)cc3c2)=NO1` (centres unmarked) [compound 743], the “log P” value was 3.15[a].

On to `CCc1ccc(CNC(=O)C2(C)CC(c3ccc4ncc(Br)cc4c3)=NO2)nc1` (centres unmarked) [compound 744], for which the “log P” value is 2.05[a].

As to `C#Cc1cnc2ccc(C3=NOC(C)(C(=O)NCc4cc(CC)ccn4)C3)cc2c1` (centres unmarked) [compound 745], the “log P” value is 1.64[a].

Consider `CCc1cccc(CNC(=O)C2(C)CC(c3ccc4ncc(Br)cc4c3)=NO2)n1` (centres unmarked) [compound 746], for which the “log P” value was 1.88[a].

On to `C#Cc1cnc2ccc(C3=NOC(C)(C(=O)NCc4ccc(CC)cn4)C3)cc2c1` (centres unmarked) [compound 747], for which the “log P” value was 1.82[a].

For `CC1(C(=O)NCc2cc(C#N)ccn2)CC(c2ccc3ncc(Br)cc3c2)=NO1` (centres unmarked) [compound 748], the “log P” value was 2.48[a].

For `C#Cc1cnc2ccc(C3=NOC(C)(C(=O)NCc4cccc(CC)n4)C3)cc2c1` (centres unmarked) [compound 749], the “log P” value was 1.67[a].

Take `CC(C)c1ccnc(CNC(=O)C2(C)CC(c3ccc4ncc(Br)cc4c3)=NO2)c1` (centres unmarked) [compound 750]: the “log P” value was 2.05[a].

With `C#Cc1cnc2ccc(C3=NOC(C)(C(=O)NCc4cc(C#N)ccn4)C3)cc2c1` (centres unmarked) [compound 751], the “log P” value was 2.20[a].

As to `CCc1ccnc(CNC(=O)C2(C)CC(c3ccc4ncc(Br)cc4c3)=NO2)c1` (centres unmarked) [compound 752], the “log P” value is 1.82[a].

For the compound `C#Cc1cnc2ccc(C3=NOC(C)(C(=O)NCC4(C)CCC4)C3)cc2c1` (centres unmarked) [compound 753], the “log P” value is 3.27[a].

Take `CC1(C(=O)NCC2CC(F)(F)C2)CC(c2ccc3ncc(Br)cc3c2)=NO1` (centres unmarked) [compound 754]: the “log P” value was 2.98[a].

`CC1(C(=O)NC2CC(F)(F)C2)CC(c2ccc3ncc(Br)cc3c2)=NO1` (centres unmarked) [compound 755]: the “log P” value is 2.86[a].

Regarding `C#Cc1cnc2ccc(C3=NOC(C)(C(=O)NCC4CS(=O)(=O)CCO4)C3)cc2c1` (centres unmarked) [compound 756], the “log P” value is 1.93[a].

As to `CC1(CNC(=O)C2(C)CC(c3ccc4ncc(Br)cc4c3)=NO2)CCC1` (centres unmarked) [compound 757], the “log P” value is 3.65[a].

Consider `C#Cc1cnc2ccc(C3=NOC(C)(C(=O)NCc4ccnc(O)c4)C3)cc2c1` (centres unmarked) [compound 758], for which the “log P” value was 1.54[a].

For `CCC(C)Oc1cc(CNC(=O)C2(C)CC(c3ccc4ncc(Br)cc4c3)=NO2)ccn1` (centres unmarked) [compound 759], the “log P” value is 3.48[a].

For the compound `C#Cc1cnc2ccc(C3=NOC(C)(C(=O)NCc4ccnc(OC(C)CC)c4)C3)cc2c1` (centres unmarked) [compound 760], the “log P” value is 3.06[a].

With `CC1(C(=O)NCc2ccnc(NC3CC3)c2)CC(c2ccc3ncc(Br)cc3c2)=NO1` (centres unmarked) [compound 761], the “log P” value was 1.58[a].

Take `C#Cc1cnc2ccc(C3=NOC(C)(C(=O)NCc4ccnc(C(F)(F)F)c4)C3)cc2c1` (centres unmarked) [compound 762]: the “log P” value is 2.64[a].

`CC(C)Oc1cc(CNC(=O)C2(C)CC(c3ccc4ncc(Br)cc4c3)=NO2)ccn1` (centres unmarked) [compound 763]: the “log P” value is 3.09[a].

As to `C#Cc1cnc2ccc(C3=NOC(C)(C(=O)NCc4ccnc(OC(C)C)c4)C3)cc2c1` (centres unmarked) [compound 764], the “log P” value is 2.71[a].

On to `CC1(C(=O)NCc2ccnc(O)c2)CC(c2ccc3ncc(Br)cc3c2)=NO1` (centres unmarked) [compound 765], for which the “log P” value is 1.72[a].

As for `C#Cc1cnc2ccc(C3=NOC(C)(C(=O)NCCc4ccc(C(F)(F)F)cc4Cl)C3)cc2c1` (centres unmarked) [compound 766], the “log P” value was 3.76[a].

Turning to `CC(NNC(=O)C1(C)CC(c2ccc3ncc(Br)cc3c2)=NO1)C1CC1` (centres unmarked) [compound 767], the “log P” value was 2.51[a].

For the compound `C#Cc1cnc2ccc(C3=NOC(C)(C(=O)NC(C4CC4)C4CC4)C3)cc2c1` (centres unmarked) [compound 768], the “log P” value is 3.21[a].

On to `CC1(C(=O)NCCc2ccc(C(F)(F)F)cc2Cl)CC(c2ccc3ncc(Br)cc3c2)=NO1` (centres unmarked) [compound 769], for which the “log P” value is 4.21[a].

`C#Cc1cnc2ccc(C3=NOC(C)(C(=O)NNC(C)C4CC4)C3)cc2c1` (centres unmarked) [compound 770]: the “log P” value is 2.21[a].

As for `CC1(C(=O)N2CCOCC2)CC(c2ccc3ncc(Br)cc3c2)=NO1` (centres unmarked) [compound 771], the “log P” value was 2.48[a].

As for `C#Cc1cnc2ccc(C3=NOC(C)(C(=O)NCc4cnn(CC(F)(F)F)c4)C3)cc2c1` (centres unmarked) [compound 772], the “log P” value was 2.34[a].

With `CC1(C(=O)NC(C2CC2)C2CC2)CC(c2ccc3ncc(Br)cc3c2)=NO1` (centres unmarked) [compound 773], the “log P” value was 3.57[a].

Regarding `C#Cc1cnc2ccc(C3=NOC(C)(C(=O)N4CCOCC4)C3)cc2c1` (centres unmarked) [compound 774], the “log P” value was 2.18[a].

As to `CC1(C(=O)NCC2CCC2)CC(c2ccc3ncc(Br)cc3c2)=NO1` (centres unmarked) [compound 775], the “log P” value is 3.25[a].

For the compound `C#Cc1cnc2ccc(C3=NOC(C)(C(=O)NC4CC(F)(F)C4)C3)cc2c1` (centres unmarked) [compound 776], the “log P” value is 2.57[a].

In the case of `CC1(C(=O)NCc2cnn(CC(F)(F)F)c2)CC(c2ccc3ncc(Br)cc3c2)=NO1` (centres unmarked) [compound 777], the “log P” value was 2.60[a].

Regarding `C#Cc1cnc2ccc(C3=NOC(C)(C(=O)NCC4CCC4)C3)cc2c1` (centres unmarked) [compound 778], the “log P” value is 2.88[a].

Regarding `C#Cc1cnc2ccc(C3=NOC(C)(C(=O)NCc4cncc(C#N)c4)C3)cc2c1` (centres unmarked) [compound 779], the “log P” value is 2.10[a].

As to `CN(C)c1ncccc1CNC(=O)C1(C)CC(c2ccc3ncc(Br)cc3c2)=NO1` (centres unmarked) [compound 780], the “log P” value is 1.60[a].

With `C#Cc1cnc2ccc(C3=NOC(C)(C(=O)NCc4cncc(F)c4)C3)cc2c1` (centres unmarked) [compound 781], the “log P” value is 2.13[a].

As to `CC1(C(=O)NCc2cncc(C#N)c2)CC(c2ccc3ncc(Br)cc3c2)=NO1` (centres unmarked) [compound 782], the “log P” value is 2.35[a].

`C#Cc1cnc2ccc(C3=NOC(C)(C(=O)NCc4cccnc4F)C3)cc2c1` (centres unmarked) [compound 783]: the “log P” value was 2.23[a].

For the compound `CC1(C(=O)NCc2cncc(F)c2)CC(c2ccc3ncc(Br)cc3c2)=NO1` (centres unmarked) [compound 784], the “log P” value was 2.37[a].

Take `C#Cc1cnc2ccc(C3=NOC(C)(C(=O)NCc4cccnc4OCC)C3)cc2c1` (centres unmarked) [compound 785]: the “log P” value was 2.84[a].

With `CC1(C(=O)NCc2cccnc2F)CC(c2ccc3ncc(Br)cc3c2)=NO1` (centres unmarked) [compound 786], the “log P” value was 2.51[a].

On to `C#Cc1cnc2ccc(C3=NOC(C)(C(=O)NCc4cnc(Cl)cn4)C3)cc2c1` (centres unmarked) [compound 787], for which the “log P” value is 2.43[a].

As for `CCOc1ncccc1CNC(=O)C1(C)CC(c2ccc3ncc(Br)cc3c2)=NO1` (centres unmarked) [compound 788], the “log P” value is 3.21[a].

Turning to `C#Cc1cnc2ccc(C3=NOC(C)(C(=O)NCc4cncc(Cl)n4)C3)cc2c1` (centres unmarked) [compound 789], the “log P” value was 2.41[a].

Turning to `CC1(C(=O)NCc2cnc(Cl)cn2)CC(c2ccc3ncc(Br)cc3c2)=NO1` (centres unmarked) [compound 790], the “log P” value was 2.73[a].

Turning to `C#Cc1cnc2ccc(C3=NOC(C)(C(=O)NCc4cncc(OC)n4)C3)cc2c1` (centres unmarked) [compound 791], the “log P” value was 2.25[a].

For `CC1(C(=O)NCc2cncc(Cl)n2)CC(c2ccc3ncc(Br)cc3c2)=NO1` (centres unmarked) [compound 792], the “log P” value is 2.71[a].

Turning to `C#Cc1cnc2ccc(C3=NOC(C)(C(=O)NCc4cc(C(C)C)ccn4)C3)cc2c1` (centres unmarked) [compound 793], the “log P” value was 1.84[a].

Regarding `COc1cncc(CNC(=O)C2(C)CC(c3ccc4ncc(Br)cc4c3)=NO2)n1` (centres unmarked) [compound 794], the “log P” value was 2.53[a].

Turning to `CC1(C(=O)NCc2ccnc(C(F)(F)F)c2)CC(c2ccc3ncc(Br)cc3c2)=NO1` (centres unmarked) [compound 795], the “log P” value is 2.96[a].

Regarding `C#Cc1cnc2ccc(C3=NOC(C)(C(=O)NCc4ccnc(SC(C)(C)C)c4)C3)cc2c1` (centres unmarked) [compound 796], the “log P” value was 3.02[a].

In the case of `CC(C)(C)Sc1cc(CNC(=O)C2(C)CC(c3ccc4ncc(Br)cc4c3)=NO2)ccn1` (centres unmarked) [compound 797], the “log P” value was 3.44[a].

For `C#Cc1cnc2ccc(C3=NOC(C)(C(=O)NCc4ccnc(SC)c4)C3)cc2c1` (centres unmarked) [compound 798], the “log P” value is 2.32[a].

Take `CSc1cc(CNC(=O)C2(C)CC(c3ccc4ncc(Br)cc4c3)=NO2)ccn1` (centres unmarked) [compound 799]: the “log P” value is 2.62[a].

Regarding `C#Cc1cnc2ccc(C3=NOC(C)(C(=O)NCc4ccnc(N(C)C)c4)C3)cc2c1` (centres unmarked) [compound 800], the “log P” value was 1.36[a].

For `CN(C)c1cc(CNC(=O)C2(C)CC(c3ccc4ncc(Br)cc4c3)=NO2)ccn1` (centres unmarked) [compound 801], the “log P” value was 1.49[a].

With `C#Cc1cnc2ccc(C3=NOC(C)(C(=O)NCc4ccnc(F)c4)C3)cc2c1` (centres unmarked) [compound 802], the “log P” value is 2.23[a].

In the case of `CC1(C(=O)NCc2ccnc(F)c2)CC(c2ccc3ncc(Br)cc3c2)=NO1` (centres unmarked) [compound 803], the “log P” value is 2.51[a].

On to `C#Cc1cnc2ccc(C3=NOC(C)(C(=O)NCc4ccncc4F)C3)cc2c1` (centres unmarked) [compound 804], for which the “log P” value is 2.02[a].

Regarding `C#Cc1cnc2ccc(C3=NOC(C)(C(=O)NCc4cccnc4O)C3)cc2c1` (centres unmarked) [compound 805], the “log P” value was 1.64[a].

For `C#Cc1cnc2ccc(C3=NOC(C)(C(=O)NCc4ccc(O)nc4)C3)cc2c1` (centres unmarked) [compound 806], the “log P” value is 1.54[a].

For `CC1(C(=O)NCc2ccc(O)nc2)CC(c2ccc3ncc(Br)cc3c2)=NO1` (centres unmarked) [compound 807], the “log P” value is 1.72[a].

On to `C#Cc1cnc2ccc(C3=NOC(C)(C(=O)NCc4cccnc4N(C)C)C3)cc2c1` (centres unmarked) [compound 808], for which the “log P” value is 1.43[a].

As to `C#Cc1cnc2ccc(C3=NOC(C)(C(=O)NCc4ccnc(NC5CC5)c4)C3)cc2c1` (centres unmarked) [compound 809], the “log P” value is 1.45[a].
